Experimental data as given in PubChem BioAssay (NCI).
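Test compounds were applied to cells in 96-well plates for 48 hours at 5 doses. TGI marks complete inhibition of growth.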

Columns and labels:
Assay in all cases: NCI anticancer screen, dose series, 48 h
786-0 renal = tested on: 786-0 renal
T-47D breast = tested on: T-47D breast
NCI-H460 lung = tested on: NCI-H460 lung
MDA-MB-435 = tested on: MDA-MB-435
M14 melanoma = tested on: M14 melanoma
EKVX NSCLC = tested on: EKVX NSCLC
ACHN renal = tested on: ACHN renal
RXF 393 renal = tested on: RXF 393 renal
HL-60(TB) leukemia = tested on: HL-60(TB) leukemia
BT-549 breast = tested on: BT-549 breast
SF-539 CNS = tested on: SF-539 CNS
OVCAR-5 ovarian = tested on: OVCAR-5 ovarian
TK-10 renal = tested on: TK-10 renal
NCI-H522 lung = tested on: NCI-H522 lung
HT29 colon = tested on: HT29 colon
PC-3 prostate = tested on: PC-3 prostate
DU-145 prostate = tested on: DU-145 prostate
HCC-2998 colon = tested on: HCC-2998 colon
SNB-19 CNS = tested on: SNB-19 CNS
UACC-257 melanoma = tested on: UACC-257 melanoma
NCI-H226 lung = tested on: NCI-H226 lung
SK-MEL-5 melanoma = tested on: SK-MEL-5 melanoma
CAKI-1 renal = tested on: CAKI-1 renal
UO-31 renal = tested on: UO-31 renal
MCF7 breast = tested on: MCF7 breast
SF-295 CNS = tested on: SF-295 CNS
CCRF-CEM leukemia = tested on: CCRF-CEM leukemia
LOX IMVI melanoma = tested on: LOX IMVI melanoma
MOLT-4 leukemia = tested on: MOLT-4 leukemia
MDA-N = tested on: MDA-N
RPMI-8226 leukemia = tested on: RPMI-8226 leukemia
HOP-62 NSCLC = tested on: HOP-62 NSCLC
OVCAR-3 ovarian = tested on: OVCAR-3 ovarian
OVCAR-4 ovarian = tested on: OVCAR-4 ovarian
SF-268 CNS = tested on: SF-268 CNS
SK-MEL-2 melanoma = tested on: SK-MEL-2 melanoma
SK-MEL-28 melanoma = tested on: SK-MEL-28 melanoma
SN12C renal = tested on: SN12C renal
SK-OV-3 ovarian = tested on: SK-OV-3 ovarian
KM12 colon = tested on: KM12 colon
NCI-H23 lung = tested on: NCI-H23 lung
OVCAR-8 ovarian = tested on: OVCAR-8 ovarian
HCT-15 colon = tested on: HCT-15 colon
HCT-116 colon = tested on: HCT-116 colon
COLO 205 colon = tested on: COLO 205 colon
NCI/ADR-RES ovarian = tested on: NCI/ADR-RES ovarian
IGROV1 ovarian = tested on: IGROV1 ovarian
A549 NSCLC = tested on: A549 NSCLC
U251 CNS = tested on: U251 CNS
K-562 leukemia = tested on: K-562 leukemia
SNB-75 CNS = tested on: SNB-75 CNS
UACC-62 melanoma = tested on: UACC-62 melanoma
SW-620 colon = tested on: SW-620 colon
SR leukemia = tested on: SR leukemia

Measured: TGI

O=C1Nc2ccccc2C(=O)OC(Cc2ccccc2)=Nc2ccccc21
> 100 µM: all assays above
